One compound from publication PMC12123037, “Cleavage of CAD by caspase-3 determines the cancer cell fate during chemotherapy” (Nature Communications, 2025) can be followed below.

In this test the target is T1, CAD (GFP-CAD; assayed as GFP-CAD-D1371A) (Homo sapiens, UniProt P27708, D1371A).
T1 construct: full-length CAD subcloned into Not I/Bgl II sites of pEGFP-N1-His (GFP fusion, GFP kept); expressed in HEK-293T; RIPA lysate diluted 150x in MST buffer, not purified
Briefly: microscale thermophoresis, GFP fusion in diluted HEK-293T lysate. The test is classed as binding. The source says: microscale thermophoresis, GFP fusion in diluted HEK-293T lysate on CAD (GFP-CAD; assayed as GFP-CAD-D1371A) | direct interaction between RMY-186 and CAD-D1371A protein in vitro, with a Kd of […]
(Microscale thermophoresis detects binding through changes in fluorescence in a small temperature gradient.)

T1 sequence (P27708 whole entry D1371A, the tested form may be a part): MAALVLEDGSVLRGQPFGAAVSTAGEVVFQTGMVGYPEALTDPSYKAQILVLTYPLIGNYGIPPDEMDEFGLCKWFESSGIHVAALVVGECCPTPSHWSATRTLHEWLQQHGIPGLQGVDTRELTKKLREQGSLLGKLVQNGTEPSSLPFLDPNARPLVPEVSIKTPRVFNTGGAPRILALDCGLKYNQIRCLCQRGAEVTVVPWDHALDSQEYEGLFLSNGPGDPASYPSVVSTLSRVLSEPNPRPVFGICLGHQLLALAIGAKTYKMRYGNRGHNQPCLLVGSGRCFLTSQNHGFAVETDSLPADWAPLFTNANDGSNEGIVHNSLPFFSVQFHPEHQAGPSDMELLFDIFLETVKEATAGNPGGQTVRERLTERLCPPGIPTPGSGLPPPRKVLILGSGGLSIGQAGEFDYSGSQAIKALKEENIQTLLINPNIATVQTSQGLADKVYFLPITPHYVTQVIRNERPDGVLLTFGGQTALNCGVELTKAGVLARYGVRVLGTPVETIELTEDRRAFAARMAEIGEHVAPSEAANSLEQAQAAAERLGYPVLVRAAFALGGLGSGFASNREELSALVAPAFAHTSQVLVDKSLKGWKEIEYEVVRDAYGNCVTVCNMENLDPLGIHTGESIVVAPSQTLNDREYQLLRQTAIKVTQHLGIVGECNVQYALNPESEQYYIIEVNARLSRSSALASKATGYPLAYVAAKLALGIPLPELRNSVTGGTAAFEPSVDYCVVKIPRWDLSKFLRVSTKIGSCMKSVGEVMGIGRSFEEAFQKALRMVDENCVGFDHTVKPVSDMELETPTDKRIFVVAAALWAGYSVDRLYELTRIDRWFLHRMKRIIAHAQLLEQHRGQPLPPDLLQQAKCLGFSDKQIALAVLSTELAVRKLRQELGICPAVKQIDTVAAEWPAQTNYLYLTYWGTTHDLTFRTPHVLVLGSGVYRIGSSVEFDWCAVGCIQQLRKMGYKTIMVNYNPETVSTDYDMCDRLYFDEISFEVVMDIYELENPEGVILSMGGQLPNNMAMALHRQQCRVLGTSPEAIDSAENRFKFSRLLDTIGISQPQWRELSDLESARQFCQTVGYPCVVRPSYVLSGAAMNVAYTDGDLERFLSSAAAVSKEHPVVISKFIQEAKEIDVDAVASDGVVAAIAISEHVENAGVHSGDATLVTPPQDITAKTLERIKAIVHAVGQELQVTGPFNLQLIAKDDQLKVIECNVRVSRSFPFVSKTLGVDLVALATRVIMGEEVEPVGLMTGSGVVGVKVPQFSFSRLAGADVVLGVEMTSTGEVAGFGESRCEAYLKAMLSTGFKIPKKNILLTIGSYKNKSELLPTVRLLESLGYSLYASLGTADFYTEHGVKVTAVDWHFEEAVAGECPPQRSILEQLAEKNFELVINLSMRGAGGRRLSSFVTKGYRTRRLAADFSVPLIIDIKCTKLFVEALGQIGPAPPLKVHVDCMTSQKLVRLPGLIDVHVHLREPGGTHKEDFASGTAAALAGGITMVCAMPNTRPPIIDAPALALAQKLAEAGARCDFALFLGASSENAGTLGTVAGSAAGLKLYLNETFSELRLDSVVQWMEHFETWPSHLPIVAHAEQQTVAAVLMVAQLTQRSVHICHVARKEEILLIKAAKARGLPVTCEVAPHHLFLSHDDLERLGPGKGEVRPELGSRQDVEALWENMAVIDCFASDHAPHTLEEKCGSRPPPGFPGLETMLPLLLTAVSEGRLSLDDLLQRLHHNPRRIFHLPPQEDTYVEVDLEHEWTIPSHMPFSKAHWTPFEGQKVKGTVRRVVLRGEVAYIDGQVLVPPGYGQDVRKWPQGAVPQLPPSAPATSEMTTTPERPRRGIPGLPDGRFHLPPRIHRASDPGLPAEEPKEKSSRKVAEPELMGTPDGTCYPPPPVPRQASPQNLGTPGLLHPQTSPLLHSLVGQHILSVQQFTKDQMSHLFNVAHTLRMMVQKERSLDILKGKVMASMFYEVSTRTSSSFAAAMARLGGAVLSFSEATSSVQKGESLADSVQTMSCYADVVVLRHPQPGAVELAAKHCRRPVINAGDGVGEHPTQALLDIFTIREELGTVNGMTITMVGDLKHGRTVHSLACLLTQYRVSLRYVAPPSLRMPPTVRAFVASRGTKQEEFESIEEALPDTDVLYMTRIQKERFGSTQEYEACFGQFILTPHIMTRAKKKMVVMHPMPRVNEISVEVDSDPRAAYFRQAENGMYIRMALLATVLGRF

As for `O=c1c(O)c(N2CCN(Cc3cccc(Br)c3)CC2)oc2ccccc12` [compound 9, 2-(4-(3-bromobenzyl)-piperazin-1-yl)-3-hydroxy-4H-chromen-4-one], the Kd was 6.78 µM.

Usually Kd stands for the constant that tells how readily two partners part at equilibrium. Higher therefore signals a looser complex.
